# Measurements from patent US12220391B2, “Compositions and methods of use of β-hydroxy-β-methylbutyrate (HMB) for modulating autophagy and lipophagy” (Metabolic Technologies, LLC, priority 2016, dated 2025).
# Columns and labels:
# [1] = compared with CaHMB; cited from earlier work
# ATG7 = ATG7 gene expression (qPCR) in primary human skeletal muscle myotubes; type: cell-based; conditions: HMB 1 mM, 4 days, HSMM myotubes, qPCR normalized to 36B4, n=6
# Method: Cultured primary human skeletal muscle cells (HSMM, Lonza) were grown to confluence and differentiated into myotubes. The cells were then supplemented with HMB (1 mM) for 4 days (n=6 for treatment or control groups) with a medium change every other day. Gene expression (mRNA) was determined at the end of the treatment by quantitative polymerase chain reaction (qPCR). For normalization, the mRNA signal was adjusted to the co-amplified signal of the ribosomal protein 36B4.
# [2] = system: differentiated adipocytes; experiment: Lipolysis in differentiated adipocytes; type: cell-based; conditions: pretreated 48 hours with 1 mM HMB; basal and 1 uM isoproterenol; n=4
# Method: (§1) Differentiated adipocytes were treated with HMB in regular growth medium for determination of lipolysis and gene expression. The adipocytes were pretreated for 48 hours with 1 mM HMB (n=4), resulting in basal and 1 uM isoproterenol stimulated lipolysis (FIG. 3A).
# [3] = system: adipose triglyceride lipase (ATGL); experiment: ATGL gene expression in differentiated adipocytes; type: cell-based; conditions: HMB, 96 hours, n=6, p<0.05
# Method: as §1
# [4] = system: autophagy related protein (ATG7); experiment: ATG7 gene expression in differentiated adipocytes; type: cell-based; conditions: HMB, 96 hours, n=6, p<0.05
# Method: as §1
# AMPK [5] = experiment: AMPK activation (phosphorylated AMPK substrates, total AMPK) in primary human adipocytes; type: cell-based; conditions: 1 mM HMB, 96 hours
# Method: A line of subcutaneous preadipocytes isolated from normal humans (non-diabetic controls) was used. These cells differentiate well (see FIG. 4) and provide a good in vitro model for studying effects of HMB on lipophagy. […] Differentiated adipocytes (14 days post confluence) were treated for 4 days with 1 mM HMB supplemented in normal growth medium. Lysates were probed with an antibody (Cell Signal Technologies) directed against AMPK phosphorylated substrates (consensus motif LCRXXpS/pT) to obtain a broad evaluation of AMPK activation and total AMPK levels were also measured. […] The cells were lysed and probed for phosphorylated targets of AMPK and for total AMPK levels (FIG. 5B).
# AMPK [6] = experiment: AMPK activation in HEK293 cells; type: cell-based; conditions: similarly treated HEK293 cells (data not shown)
# BNIP3 = BNIP3 gene expression in human primary adipocytes; type: cell-based; conditions: 1 mM HMB, 96 hours, n=3, p<0.05
# Text: (§2) These transcription factors represent two different autophagy pathways.
# TFEB = TFEB gene expression in human primary adipocytes; type: cell-based; conditions: 1 mM HMB, 96 hours, n=3, p<0.05
# Text: as §2
# Primary preadipocytes = experiment: Dual-labeled LC3 (DsRed/GFP) imaging of autophagy in primary preadipocytes; type: cell-based; conditions: 1 mM HMB, 4 days
# Method: A primary adipocyte cell based assay for visualizing HMB activated lipophagy was developed. Primary preadipocytes were cultured on glass coverslips and treated with HMB for four days in regular growth medium. Cells were fixed and mounted with DAPI-containing medium and imaged with 60× objective. Autophagy vesicles are in red with degradation of green signal indicative of autophagy activation (FIG. 7). Nuclei are stained in blue (FIG. 7). A dual-labeled LC3 retroviral expression contrast was used to generate recombinant retrovirus using 293GPG cells. Primary preadipocytes were infected with the viral particles and, starting with four days after infection, selected with geneticin for two weeks prior to the imaging experiments. The LC3 fusion construct labels the autophagosomes and harbors dual signals; DsRed and GFP green probes. In the basal state there is co-localization of the green and red signals resulting in a yellow signal in the merged panel (FIG. 7 top panel with no HMB). When autophagy is activated, the GFP probe is cleaved from LC3 by ATG4 and degraded resulting in loss of the green signal and in absence of the co-localization in the merged panel. The initial studies used preadipocytes infected with the LC3 containing retrovirus and treated or not treated for 4 days with 1 mM HMB (FIG. 7, top: no HMB, bottom +HMB).
# adipocytes (SGBS) = experiment: Phosphor protein array, SGBS adipocytes; type: cell-based; conditions: HMB-treated SGBS adipocytes
# Method: (§3) Lysates from HMB-treated muscle (HSMM) and adipocytes (SGBS) were analyzed using a phosphor protein array. Many mTOR targets were regulated in both cell system (FIG. 8). Increases in CREB phosphorylation on serine 133 on a signaling protein array using SGBS adipocytes treated HMB was seen (FIG. 8). Thus, the activating phosphorylation of CREB at S133 mediates induction of TFEB in these adipocytes and this pathway results in the upregulation of autophagy.
# muscle cells (HSMM) = experiment: Phosphor protein array, HSMM muscle cells; type: cell-based, human; conditions: HMB-treated HSMM muscle cells
# Method: as §3
# [7] = after HMB is fed; cited from earlier work
# [8] = system: plasma CPK (creatine phosphokinase); conditions: following intense exercise, within the first 48 hrs of supplementation; cited from earlier work
# [9] = healthy young or old adults; cited from earlier work
# mTOR = conditions: in vitro, through mTOR phosphorylation; cited from earlier work
# [10] = system: ubiquitin-proteosome proteolytic pathway; conditions: muscle protein catabolism stimulated by PIF, LPS and angiotensin II; cited from earlier work
# [11] = system: caspases-3 and -8 proteases; conditions: cited from earlier work
smiles,measurement,setting,value
"CC(C)(O)CC(=O)O [HMB free acid, β-hydroxy-β-methylbutyric acid]",absorption,[1],absorbed quicker
same,tissue clearance,[1],greater tissue clearance
"CC(C)(O)CC(=O)O [HMB, β-hydroxy-β-methylbutyric acid]",ATG7 gene expression (mRNA),ATG7,Significant (p<0.01) upregulation
same,lipolysis (basal and isoproterenol stimulated),[2],activates
same,ATGL gene expression,[3],significantly increased
same,ATG7 gene expression,[4],significantly increased
same,total AMPK levels,AMPK [5],not significantly changed
same,AMPK substrate phosphorylation intensity,"AMPK [5]; densitometry, n=3, p<0.01",significant increase
same,AMPK substrate phosphorylation increase,AMPK [6],not observed
same,BNIP3 mRNA levels,BNIP3,increased
same,TFEB mRNA levels,TFEB,increased
same,size of autophagic puncta,Primary preadipocytes,significant increases
same,LC3 GFP green signal and green/red co-localization,Primary preadipocytes; preadipocytes infected with LC3 retrovirus,Loss of green signals and absence of green/red co-localization
same,CREB phosphorylation (serine 133),adipocytes (SGBS),enhanced
same,HSP27 phosphorylation,adipocytes (SGBS),enhanced
same,Yes kinase phosphorylation,adipocytes (SGBS),Enhanced
same,activation of p53,adipocytes (SGBS),Reduced activation
same,activation of pSTAT3,adipocytes (SGBS),Reduced activation
same,activity of the mTOR pathway,adipocytes (SGBS),Reduced activity
same,RSK 1/2/3 phosphorylation at the mTOR site (S473),muscle cells (HSMM),significant reduction
same,activation of STAT3,muscle cells (HSMM),reduced activation
same,activation of p53,muscle cells (HSMM),reduced activation
same,mTOR activity,muscle cells (HSMM),inhibition
same,p70 S6 kinase phosphorylation at several threonine p-sites,muscle cells (HSMM),significant reduction
same,loss of HMB to urine,[7],20-50%
same,muscle damage measured by elevated plasma CPK,[8],reduced
same,side effects,[9],no side effects
same,protein synthesis,mTOR,stimulates
same,proteolysis,[10],decreases
same,activation of caspases-3 and -8 proteases,[11],attenuates
